Tested on: Rhizoctonia solani
Experiment: Limit concentration of soil-fungicidal effectiveness, Rhizoctonia solani, infested soil seeded with peas (Example 1)
Assay type: in vivo
Conditions: soil, 480 h, 20 to 23 days, 22°-25° C, read-out: Limit concentration of the fungicidal effectiveness
Experimental: Limit concentrations of the soil-fungicidal effectiveness at homogeneous mixture of the products with the infested soil. Basic condition in the evaluation are a sound root formation without fungus necroses and germination of the seed of at least 90% compared with the result obtained in steamed soil. Per concentration there were seeded 25 grains of peas of the variety "Miracle of Kelvedon" (marrow pea) without a waiting period. The cultivation time in the tests was 20 to 23 days at a temperature of 22°-25° C. Four commercial products were included in the test series.
Rhizoctania solani: -- Steamed compost soil was inoculated with mycelium of Rhizoctonia solani.

Compound	minimal effective concentration [µg/mL]
C[S+]([O-])c1nnc(CF)s1 (centres unmarked) [Compound 33, 2-fluoromethyl-5-methylsulfinyl-1,3,4-thiadiazole]	20
CCC(Cl)c1nnc(S(C)(=O)=O)s1 (centres unmarked) [Compound 49, 2-(1-chloropropyl)-5-methylsulfonyl-1,3,4-thiadiazole]	50
CCCCCCCCS(=O)(=O)c1nnc(C(Cl)(Cl)Cl)s1 [Compound 29, 2-trichloromethyl-5-octylsulfonyl-1,3,4-thiadiazole]	> 200
CC(C)S(=O)(=O)c1nnc(C(Cl)(Cl)Cl)s1 [Compound 24, 2-trichloromethyl-5-isopropylsulfonyl-1,3,4-thiadiazole]	30
CC(Cl)(Cl)c1nnc(S(C)(=O)=O)s1 [Compound 47, 2-(1,1-dichloroethyl)-5-methylsulfonyl-1,3,4-thiadiazole]	50
CS(=O)(=O)c1nnc(CF)s1 [Compound 34, 2-fluoromethyl-5-methylsulfonyl-1,3,4-thiadiazole]	30
CC(C)C(Br)c1nnc(S(C)(=O)=O)s1 (centres unmarked) [Compound 51, 2-(1-bromisobutyl)-5-methylsulfonyl-1,3,4-thiadiazole]	50
CC(Br)c1nnc(S(C)(=O)=O)s1 (centres unmarked) [Compound 50, 2-(1-bromoethyl)-5-methylsulfonyl-1,3,4-thiadiazole]	100
CS(=O)(=O)c1nnc(C(Br)Br)s1 [Compound 32, 2-dibromomethyl-5-methylsulfonyl-1,3,4-thiadiazole]	50
CCCCCCCS(=O)(=O)c1nnc(C(Cl)(Cl)Cl)s1 [Compound 28, 2-trichloromethyl-5-heptylsulfonyl-1,3,4-thiadiazole]	200
C[S+]([O-])c1nnc(CCl)s1 (centres unmarked) [Compound 2, 2-chloromethyl-5-methylsulfinyl-1,3,4-thiadiazole]	50
CCCCCCC[S+]([O-])c1nnc(C(Cl)(Cl)Cl)s1 (centres unmarked) [Compound 13, 2-trichloromethyl-5-heptylsulfinyl-1,3,4-thiadiazole]	200
CCCCCCCS(=O)(=O)c1nnc(C(F)(F)F)s1 [Compound 44, 2-trifluoromethyl-5-heptylsulfonyl-1,3,4-thiadiazole]	50
CCC(Cl)c1nnc([S+](C)[O-])s1 (centres unmarked) [Compound 48, 2-(1-chloropropyl)-5-methylsulfinyl-1,3,4-thiadiazole]	100
CCCCC[S+]([O-])c1nnc(C(F)(F)F)s1 (centres unmarked) [Compound 38, 2-trifluoromethyl-5-pentylsulfinyl-1,3,4-thiadiazole]	40
CS(=O)(=O)c1nnc(CBr)s1 [Compound 30, 2-bromomethyl-5-methylsulfonyl-1,3,4-thiadiazole]	150
CCCCCS(=O)(=O)c1nnc(C(Cl)(Cl)Cl)s1 [Compound 26, 2-trichloromethyl-5-amylsulfonyl-1,3,4-thiadiazole]	25

Tested on: Pythium ultimum
Experiment: Pythium ultimum infested compost soil, marrow peas (Example 2)
Assay type: in vivo
Conditions: 10 mg active ingr. per liter of soil; 3 weeks
Excerpt: Steamed compost soil was inoculated with mycelium of Pythium ultimum.

Compound	Weight of fresh plant [g]
CS(=O)(=O)c1nnc(CBr)s1 [Compound 30, 2-bromomethyl-5-methylsulfonyl-1,3,4-thiadiazole]	18

Same assay, conditions: 10 mg active ingr. per liter of soil; of 25 grains

Compound	Number of sound peas after 3 wks.
CS(=O)(=O)c1nnc(CBr)s1 [Compound 30, 2-bromomethyl-5-methylsulfonyl-1,3,4-thiadiazole]	21

Same assay, conditions: 20 mg active ingr. per liter of soil; 3 weeks

Compound	Weight of fresh plant [g]
CS(=O)(=O)c1nnc(CBr)s1 [Compound 30, 2-bromomethyl-5-methylsulfonyl-1,3,4-thiadiazole]	24

Same assay, conditions: 20 mg active ingr. per liter of soil; of 25 grains

Compound	Number of sound peas after 3 wks.
CS(=O)(=O)c1nnc(CBr)s1 [Compound 30, 2-bromomethyl-5-methylsulfonyl-1,3,4-thiadiazole]	24

Same assay, conditions: 30 mg active ingr. per liter of soil; 3 weeks

Compound	Weight of fresh plant [g]
CS(=O)(=O)c1nnc(CBr)s1 [Compound 30, 2-bromomethyl-5-methylsulfonyl-1,3,4-thiadiazole]	18

Same assay, conditions: 30 mg active ingr. per liter of soil; of 25 grains

Compound	Number of sound peas after 3 wks.
CS(=O)(=O)c1nnc(CBr)s1 [Compound 30, 2-bromomethyl-5-methylsulfonyl-1,3,4-thiadiazole]	22

Tested on: Asperqilus niger
Experiment: Agar test (Example 7), Aspergillus
Assay type: cell-based
Conditions: 10 ppm; 5 days at 22° C; control 100
Experimental: (§1) The fungicidal action of the agents according to the invention was tested in artificial nutrient media against plant-pathogenic fungi in Petri dishes (agar test). The procedure was to sterilize the medium consisting of 2% malt extract and 1.5% agar-agar powder. Before the solidification of the medium, the active substances were added to it, mixing thoroughly, so that the medium received 10 parts of active substance per million (ppm). After the solidification of the medium, the latter was inoculated with a platinum dropper which contained 100 spores each of the fungi to be tested, and after five days at 22° C, an evaluation was made by measuring the diameter of the colonies in mm.

Compound	diameter of the colonies [mm]
CCCCCCCCS(=O)(=O)c1nnc(C(Cl)(Cl)Cl)s1 [Compound 29, 2-trichloromethyl-5-octylsulfonyl-1,3,4-thiadiazole]	19
CC(C)S(=O)(=O)c1nnc(C(Cl)(Cl)Cl)s1 [Compound 24, 2-trichloromethyl-5-isopropylsulfonyl-1,3,4-thiadiazole]	0
CS(=O)(=O)c1nnc(C(Br)Br)s1 [Compound 32, 2-dibromomethyl-5-methylsulfonyl-1,3,4-thiadiazole]	0
CCCCCCCS(=O)(=O)c1nnc(C(Cl)(Cl)Cl)s1 [Compound 28, 2-trichloromethyl-5-heptylsulfonyl-1,3,4-thiadiazole]	0
CCCCCCC[S+]([O-])c1nnc(C(Cl)(Cl)Cl)s1 (centres unmarked) [Compound 13, 2-trichloromethyl-5-heptylsulfinyl-1,3,4-thiadiazole]	0
CCCCCS(=O)(=O)c1nnc(C(Cl)(Cl)Cl)s1 [Compound 26, 2-trichloromethyl-5-amylsulfonyl-1,3,4-thiadiazole]	0

Tested on: Botrytis cinerea
Experiment: Agar test (Example 7), Botrytis
Assay type: cell-based
Conditions: 10 ppm; 5 days at 22° C; control 100
Experimental: as §1

Compound	diameter of the colonies [mm]
CCCCCCCCS(=O)(=O)c1nnc(C(Cl)(Cl)Cl)s1 [Compound 29, 2-trichloromethyl-5-octylsulfonyl-1,3,4-thiadiazole]	18
CC(C)S(=O)(=O)c1nnc(C(Cl)(Cl)Cl)s1 [Compound 24, 2-trichloromethyl-5-isopropylsulfonyl-1,3,4-thiadiazole]	0
CS(=O)(=O)c1nnc(C(Br)Br)s1 [Compound 32, 2-dibromomethyl-5-methylsulfonyl-1,3,4-thiadiazole]	0
CCCCCCCS(=O)(=O)c1nnc(C(Cl)(Cl)Cl)s1 [Compound 28, 2-trichloromethyl-5-heptylsulfonyl-1,3,4-thiadiazole]	0
CCCCCCC[S+]([O-])c1nnc(C(Cl)(Cl)Cl)s1 (centres unmarked) [Compound 13, 2-trichloromethyl-5-heptylsulfinyl-1,3,4-thiadiazole]	13
CCCCCS(=O)(=O)c1nnc(C(Cl)(Cl)Cl)s1 [Compound 26, 2-trichloromethyl-5-amylsulfonyl-1,3,4-thiadiazole]	0

Tested on: Colletotrichum gloeosporioides
Experiment: Agar test (Example 7), Colletotrichum
Assay type: cell-based
Conditions: 10 ppm; 5 days at 22° C; control 100
Experimental: as §1

Compound	diameter of the colonies [mm]
CCCCCCCCS(=O)(=O)c1nnc(C(Cl)(Cl)Cl)s1 [Compound 29, 2-trichloromethyl-5-octylsulfonyl-1,3,4-thiadiazole]	0
CC(C)S(=O)(=O)c1nnc(C(Cl)(Cl)Cl)s1 [Compound 24, 2-trichloromethyl-5-isopropylsulfonyl-1,3,4-thiadiazole]	0
CS(=O)(=O)c1nnc(C(Br)Br)s1 [Compound 32, 2-dibromomethyl-5-methylsulfonyl-1,3,4-thiadiazole]	0
CCCCCCCS(=O)(=O)c1nnc(C(Cl)(Cl)Cl)s1 [Compound 28, 2-trichloromethyl-5-heptylsulfonyl-1,3,4-thiadiazole]	0
CCCCCCC[S+]([O-])c1nnc(C(Cl)(Cl)Cl)s1 (centres unmarked) [Compound 13, 2-trichloromethyl-5-heptylsulfinyl-1,3,4-thiadiazole]	0
CCCCCS(=O)(=O)c1nnc(C(Cl)(Cl)Cl)s1 [Compound 26, 2-trichloromethyl-5-amylsulfonyl-1,3,4-thiadiazole]	0

Tested on: Helminthosporium sativum
Experiment: Agar test (Example 7), Helminthosporium
Assay type: cell-based
Conditions: 10 ppm; 5 days at 22° C; control 100
Experimental: as §1

Compound	diameter of the colonies [mm]
CCCCCCCCS(=O)(=O)c1nnc(C(Cl)(Cl)Cl)s1 [Compound 29, 2-trichloromethyl-5-octylsulfonyl-1,3,4-thiadiazole]	0
CC(C)S(=O)(=O)c1nnc(C(Cl)(Cl)Cl)s1 [Compound 24, 2-trichloromethyl-5-isopropylsulfonyl-1,3,4-thiadiazole]	0
CS(=O)(=O)c1nnc(C(Br)Br)s1 [Compound 32, 2-dibromomethyl-5-methylsulfonyl-1,3,4-thiadiazole]	0
CCCCCCCS(=O)(=O)c1nnc(C(Cl)(Cl)Cl)s1 [Compound 28, 2-trichloromethyl-5-heptylsulfonyl-1,3,4-thiadiazole]	0
CCCCCCC[S+]([O-])c1nnc(C(Cl)(Cl)Cl)s1 (centres unmarked) [Compound 13, 2-trichloromethyl-5-heptylsulfinyl-1,3,4-thiadiazole]	0
CCCCCS(=O)(=O)c1nnc(C(Cl)(Cl)Cl)s1 [Compound 26, 2-trichloromethyl-5-amylsulfonyl-1,3,4-thiadiazole]	0

Tested on: Stemphylium ilicis
Experiment: Agar test (Example 7), Stemphylium
Assay type: cell-based
Conditions: 10 ppm; 5 days at 22° C; control 100
Experimental: as §1

Compound	diameter of the colonies [mm]
CCCCCCCCS(=O)(=O)c1nnc(C(Cl)(Cl)Cl)s1 [Compound 29, 2-trichloromethyl-5-octylsulfonyl-1,3,4-thiadiazole]	0
CC(C)S(=O)(=O)c1nnc(C(Cl)(Cl)Cl)s1 [Compound 24, 2-trichloromethyl-5-isopropylsulfonyl-1,3,4-thiadiazole]	0
CS(=O)(=O)c1nnc(C(Br)Br)s1 [Compound 32, 2-dibromomethyl-5-methylsulfonyl-1,3,4-thiadiazole]	0
CCCCCCCS(=O)(=O)c1nnc(C(Cl)(Cl)Cl)s1 [Compound 28, 2-trichloromethyl-5-heptylsulfonyl-1,3,4-thiadiazole]	0
CCCCCCC[S+]([O-])c1nnc(C(Cl)(Cl)Cl)s1 (centres unmarked) [Compound 13, 2-trichloromethyl-5-heptylsulfinyl-1,3,4-thiadiazole]	0
CCCCCS(=O)(=O)c1nnc(C(Cl)(Cl)Cl)s1 [Compound 26, 2-trichloromethyl-5-amylsulfonyl-1,3,4-thiadiazole]	0

Source: US4061645A, “2-Trichloromethyl-5-methylsulfinyl-1,3,4-thiadiazole” (Schering Aktiengesellschaft, priority 1972, dated 1977)
